Measurements published in patent US20100255580A1, “Differentiation of Human Embryonic Stem Cells” (LIFESCCAN, INC., priority 2007, published 2010).

Columns and labels:
[1] = system: H9P49 embryonic stem cells; experiment: Real-time PCR of pancreatic endoderm markers, evaluation of retinoic acid analogues; format: cell-based, human
Procedure: At day 5, cells were collected for evaluation by FACS and real-time PCR. […] The resulting definitive endoderm cells at day 5 were exposed to the following media conditions to induce pancreatic endoderm formation: culturing in DMEM/F 12 media supplemented with 2% FBS and 1 μM all-trans retinoic acid (RA) (Catalog#R2625, Sigma, MO), or 0.1-10 μM AM-580 (4-[(5,6,7,8-Tetrahydro-5,5,8,8-tetramethyl-2-naphthalenyl)carboxamido]benzoic acid, Catalog #A8843, Sigma, MO), or 0.1-1 μM TTNPB (4-[(E)-2-(5,6,7,8-Tetrahydro-5,5,8,8-tetramethyl-2-naphthalenyl)-1-propenyl]benzoic acid Arotinoid acid, Catalog #T3757, Sigma, MO) for 3 days. AM-580 and TTNPB are retinoic acid analogs with affinity for retinoic acid receptors. RA treatment was followed by additional three day treatment in DMEM/F12 media supplemented with 2% FBS and 20-50 ng/ml bFGF (Catalog #F0291, Sigma, MO).

[2] = system: human embryonic stem cell line H1; experiment: Real-time PCR of definitive endoderm markers, H1 on human serum or […] (Examples 30, 31, 35); format: cell-based
Procedure: Cultures of the human embryonic stem cell line H1 at passage 55 were grown and differentiated on human serum (Sigma, #H1388, MO) coated plates. 0.5 ml of human serum was added to each well of 6 well tissue culture treated dish, incubated for 1 hr at room temperature, and aspirated before adding human embryonic stem cells. After cells reached 80% confluency, they were treated as follows: 2 days 0.5% FBS containing 10 ng/ml mouse recombinant Wnt3a (R&D) or 100 nM GSK-3B inhibitor IX (Catalog #361550, Calbiochem, CA) and 100 ng/mlActivin A (R&D). This was followed by 3 days 2% FBS plus 100 ng/mlActivin A. Cultures were then analyzed by real-time PCR (FIG. 46, panels a & b). […] These findings parallel our findings for human embryonic stem cells cultured on […]™ or human fibronectin coated plates.
The effectiveness of a number of commercially available GSK-3B inhibitors was evaluated in formation of DE from human embryonic stem cells. The following GSK-3B inhibitors were evaluated at 100 nM: GSK-3B inhibitor VIII (Catalog #361549, Calbiochem, CA), GSK-3B inhibitor IX (Catalog #361550, Calbiochem, CA), GSK-3B inhibitor XI (Catalog #361553, Calbiochem, CA), GSK-3B inhibitor XII (Catalog #361554, Calbiochem, CA). […] Control cultures were treated with low serum plus high dose of AA. FIG. 47, panels a and b depicts the gene expression of definitive endoderm markers at day 5. GSK-3B inhibitor IX and XI were both effective in inducing DE formation as compared to GSK-3B inhibitor VIII and XII.
The following combinations of WNT1+AA were tested:
a) 20 ng/ml of WNT1+100 ng/ml AA in 0.5% FBS+DM-F12 for days 1-2 followed by 2% FBS+DM-F12+100 ng/ml AA for day three, b) 20 ng/ml of WNT1+100 ng/ml AA in 0.5% FBS+DM-F12 for days 1-2 followed by 2% FBS+DM-F12+100 ng/ml AA for days 3-5, c) 10 ng/ml of WNT1+100 ng/ml AA in 0.5% FBS+DM-F12 for days 1-2 followed by 2% FBS+DM-F12+100 ng/ml AA for day three, d) 10 ng/ml of WNT1+100 ng/ml AA in 0.5% FBS+DM-F12 for days 1-2 followed by 2% FBS+DM-F12+100 ng/ml AA for days 3-5, e) 20 ng/ml of WNT1+100 ng/ml AA in 0.5% FBS+DM-F12 for days 1-2 followed by 2% FBS+DM-F12+100 ng/ml AA+20 ng/ml of WNT1 for day three, f) 20 ng/ml of WNT1+100 ng/ml AA in 0.5% FBS+DM-F12 for days 1-2 followed by 2% FBS+DM-F12+100 ng/ml AA+20 ng/ml of WNT1 for days 3-5.

[3] = system: human embryonic stem cell line H9; experiment: Real-time PCR of marker gene expression, H9 on MEF (Examples 2-7); format: cell-based
Procedure: Cells were harvested at the time points indicated in FIG. 3 and assayed by PCR for the expression of genes shown (FIGS. 3, 4 and 5).
After this time interval, the cells were then treated for six days with combinations of retinoic acid and FGF as outlined in Example 2, then the culture medium was removed and replaced with medium comprising DMEM/F12 with 2% FBS, containing the γ-secretase inhibitors L-685,458 at 10 μM for three days.
Cells were continuously cultured for another 3 to 5 days in basal medium with retinoic acid at 1 μM, alone or with bFGF. RNA samples were harvested from cells at various time points along this process to help evaluate the directed differentiation of the cells. Furthermore, culture medium and factors were regularly removed and replenished throughout the differentiation protocol.
RNA extraction, purification, and cDNA synthesis. RNA samples were purified by binding to a silica-gel membrane (Rneasy Mini Kit, Qiagen, CA) in the presence of an ethanol-containing, high-salt buffer followed by washing to remove contaminants. The RNA was further purified using a TURBO DNA-free kit (Ambion, INC), and high-quality RNA was then eluted in water. Yield and purity were assessed by A260 and A280 readings on a spectrophotometer. cDNA copies were made from purified RNA using an ABI (ABI, CA) high capacity cDNA archive kit.
Real-time PCR amplification and quantitative analysis.
Final data were expressed relative to a calibrator sample.

[4] = system: pancreatic endoderm cells derived from human embryonic stem cells; experiment: Passage and expansion of pancreatic endoderm cells in culture; format: cell-based; conditions: 50 ng/ml FGF10; 6 day culture period
Procedure: The low serum DMEM/F12 contained 0% (v/v) fetal bovine serum (FBS) on day 1, 0.5% (v/v) FBS on day two and 2% (v/v) FBS on each day thereafter. After four days of differentiation, the cells were cultured in low serum DMEM/F12 contained 2% (v/v) FBS, 1 μM retinoic acid and 50 ng/ml bFGF for a total of six more days. After the six days of differentiation, the cells were maintained in culture in low serum DMEM/F12 contained 2% (v/v) FBS in the presence of 50 ng/ml FGF10 for a total of 6 days. During the six-day culture period, the pancreatic endoderm cells were passaged twice and cell population-doubling time is about 36 to 48 hours during this 6-day culture. On days 0, 3, and 6 of culture, Q-PCR was used to measure the expression of marker genes indicative of pancreatic endoderm.

[5] = 1 μM RA followed by exposure to bFGF

CC1(C)CCC(C)(C)c2cc(C(=O)Nc3ccc(C(=O)O)cc3)ccc21 [AM-580, 4-[(5,6,7,8-Tetrahydro-5,5,8,8-tetramethyl-2-naphthalenyl)carboxamido]benzoic acid]
AFP and CDX-2 expression ([1]; 10 μM AM-580): suppressed | expression of PDX-1 ([1]; 10 μM AM-580): high expression

O=C1NC(=O)C(c2cn(CCCO)c3ncccc23)=C1c1cnccn1 [GSK-3B inhibitor XI]
inducing DE formation ([2]; H1P54 on MATRIGEL, 100 nM for first two days, compared to GSK-3B inhibitor VIII and XII): effective

CC1=C(/C=C/C(C)=C/C=C/C(C)=C/C(=O)O)C(C)(C)CCC1 [retinoic acid, all-trans retinoic acid, reference compound]
expression of GLUT-2 and PTF1a ([3]; 1 μM retinoic acid and bFGF in the absence of activin A): increase | expression of Pdx1 ([3]; activin A or retinoic acid alone): did not induce | expression of α-fetoprotein (AFP) and albumin ([3]; retinoic acid and FGF-4 for five days after 7 days activin A): further increased | level of Pdx1 expression versus activin A treatment alone for 5 days ([3]; three days activin A, then 5 days 1 μM retinoic acid and 50 ng/ml bFGF in the absence of activin A): approximately 3500 fold | foregut endoderm markers, such as CDX-2 and AFP [1, 5]: robust expression | pancreatic endoderm markers, such as PDX-1 [1, 5]: significantly upregulates

B1: FGF10: member of the fibroblast growth factor family (protein, UniProt O15520 38-208, looked up)
Fibroblast growth factor 10: QALGQDMVSPEATNSSSSSFSSPSSAGRHVRSYNHLQGDVRWRKLFSFTKYFLKIEKNGKVSGTKKENCPYSILEITSVEIGVVAVKAINSNYYLAMNKKGKLYGSKEFNNDCKLKERIEENGYNTYASFNWQHNGRQMYVALNGKGAPRRGQKTRRKNTSAHFLPMVVHS
expression of the pancreatic endoderm marker Pdx1 [4]: maintained expression

B2: Wnt-1: Wnt ligand (PeproTech, NJ, Catalogue #120-17) (protein, UniProt P04628 28-370, looked up)
Proto-oncogene Wnt-1: ANSSGRWWGIVNVASSTNLLTDSKSLQLVLEPSLQLLSRKQRRLIRQNPGILHSVSGGLQSAVRECKWQFRNRRWNCPTAPGPHLFGKIVNRGCRETAFIFAITSAGVTHSVARSCSEGSIESCTCDYRRRGPGGPDWHWGGCSDNIDFGRLFGREFVDSGEKGRDLRFLMNLHNNEAGRTTVFSEMRQECKCHGMSGSCTVRTCWMRLPTLRAVGDVLRDRFDGASRVLYGNRGSNRASRAELLRLEPEDPAHKPPSPHDLVYFEKSPNFCTYSGRLGTAGTAGRACNSSSPALDGCELLCCGRGHRTRTQRVTERCNCTFHWCCHVSCRNCTHTRVLHECL
definitive endoderm markers (Bry, CXCR4, GSC, SOX17, HNF-3B, and GATA-4) ([2]; H1P55 on MATRIGEL, 20 ng/ml Wnt1 with 100 ng/ml of AA): significant upregulation
